Reference: ChEMBL document CHEMBL1152457, “Antimicrobial drug resistance of Salmonella enterica serovar typhi in asia and molecular mechanism of reduced susceptibility to the fluoroquinolones” (2007)
In brackets after ≈: the same amount, converted by molar mass.

What was measured:
Format in all cases: functional, Salmonella enterica subsp. enterica serovar Typhi
[1] = tested on: Salmonella enterica subsp. enterica; test: Antimicrobial activity against multidrug-resistant Salmonella enterica Serovar Typhi isolate DT2 harboring DNA gyrase A S83F mutation by disk diffusion method in presence of plasmid mediated quinolone-resistant gene qnrA and qnrS
[2] = tested on: Salmonella enterica subsp. enterica; test: Antimicrobial activity against multidrug-resistant Salmonella enterica Serovar Typhi isolate B111 harboring DNA gyrase A S83Y mutation by disk diffusion method in presence of plasmid mediated quinolone-resistant gene qnrA and qnrS
[3] = tested on: Salmonella enterica subsp. enterica; test: Antimicrobial activity against multidrug-resistant Salmonella enterica Serovar Typhi isolate DT54 harboring DNA gyrase A S83F mutation by disk diffusion method
[4] = tested on: Salmonella enterica subsp. enterica; test: Antimicrobial activity against multidrug-resistant Salmonella enterica Serovar Typhi isolate DT9 harboring DNA gyrase A S83F mutation by disk diffusion method
[5] = tested on: Salmonella enterica subsp. enterica; test: Antimicrobial activity against Salmonella enterica Serovar Typhi isolate AG259 harboring DNA gyrase A S83F mutation by disk diffusion method in presence of plasmid mediated quinolone-resistant gene qnrA and qnrS
[6] = tested on: Salmonella enterica subsp. enterica; test: Antimicrobial activity against multidrug-resistant Salmonella enterica Serovar Typhi isolate DT15 harboring DNA gyrase A S83F mutation by disk diffusion method
[7] = tested on: Salmonella enterica subsp. enterica; test: Antimicrobial activity against Salmonella enterica Serovar Typhi isolate CT142 harboring DNA gyrase A S83F mutation by disk diffusion method in presence of plasmid mediated quinolone-resistant gene qnrA and qnrS
[8] = tested on: Salmonella enterica subsp. enterica; test: Antimicrobial activity against multidrug-resistant Salmonella enterica Serovar Typhi isolate AG15 harboring DNA gyrase A S83F mutation by disk diffusion method
[9] = tested on: Salmonella enterica subsp. enterica; test: Antimicrobial activity against multidrug-resistant Salmonella enterica Serovar Typhi isolate nar 28 harboring DNA gyrase A S83F mutation by disk diffusion method
[10] = tested on: Salmonella enterica subsp. enterica; test: Antimicrobial activity against multidrug-resistant Salmonella enterica Serovar Typhi isolate BL 21095 harboring DNA gyrase A S83F mutation by disk diffusion method in presence of plasmid mediated quinolone-resistant gene qnrA and qnrS
[11] = tested on: Salmonella enterica subsp. enterica; test: Antimicrobial activity against multidrug-resistant Salmonella enterica Serovar Typhi isolate DT48 harboring DNA gyrase A S83F mutation by disk diffusion method
[12] = tested on: Salmonella enterica subsp. enterica; test: Antimicrobial activity against multidrug-resistant Salmonella enterica Serovar Typhi isolate CT118 harboring DNA gyrase A S83F mutation by disk diffusion method in presence of plasmid mediated quinolone-resistant gene qnrA and qnrS
[13] = tested on: Salmonella enterica subsp. enterica; test: Antimicrobial activity against Salmonella enterica Serovar Typhi isolate AG258 harboring DNA gyrase A S83F mutation by disk diffusion method in presence of plasmid mediated quinolone-resistant gene qnrA and qnrS
[14] = tested on: Salmonella enterica subsp. enterica; test: Antimicrobial activity against Salmonella enterica Serovar Typhi isolate BL 21801 harboring DNA gyrase A S83F mutation by disk diffusion method in presence of plasmid mediated quinolone-resistant gene qnrA and qnrS
[15] = tested on: Salmonella enterica subsp. enterica; test: Antimicrobial activity against Salmonella enterica Serovar Typhi isolate C152 harboring DNA gyrase A S83Y mutation by disk diffusion method in presence of plasmid mediated quinolone-resistant gene qnrA and qnrS
[16] = tested on: Salmonella enterica subsp. enterica; test: Antimicrobial activity against multidrug-resistant Salmonella enterica Serovar Typhi isolate AG17 harboring DNA gyrase A S83F mutation by disk diffusion method
[17] = tested on: Salmonella enterica subsp. enterica; test: Antimicrobial activity against multidrug-resistant Salmonella enterica Serovar Typhi isolate AG176 harboring DNA gyrase A S83F mutation by disk diffusion method
[18] = tested on: Salmonella enterica subsp. enterica; test: Antimicrobial activity against Salmonella enterica Serovar Typhi isolate ipt 2 harboring DNA gyrase A D87G mutation by disk diffusion method in presence of plasmid mediated quinolone-resistant gene qnrA and qnrS
[19] = tested on: Salmonella enterica subsp. enterica; test: Antimicrobial activity against Salmonella enterica Serovar Typhi isolate nar 108 harboring DNA gyrase A S83F mutation by disk diffusion method in presence of plasmid mediated quinolone-resistant gene qnrA and qnrS
[20] = tested on: Salmonella enterica subsp. enterica; test: Antimicrobial activity against multidrug-resistant Salmonella enterica Serovar Typhi isolate nar 46 harboring DNA gyrase A D87G mutation by disk diffusion method
[21] = tested on: Salmonella enterica subsp. enterica; test: Antimicrobial activity against multidrug-resistant Salmonella enterica Serovar Typhi isolate DT49 harboring DNA gyrase A S83F mutation by disk diffusion method
[22] = tested on: Salmonella enterica subsp. enterica; test: Antimicrobial activity against multidrug-resistant Salmonella enterica Serovar Typhi isolate DT42 harboring DNA gyrase A S83F mutation by disk diffusion method
[23] = tested on: Salmonella enterica subsp. enterica; test: Antimicrobial activity against multidrug-resistant Salmonella enterica Serovar Typhi isolate A102 harboring DNA gyrase A S83Y mutation by disk diffusion method in presence of plasmid mediated quinolone-resistant gene qnrA and qnrS
[24] = tested on: Salmonella enterica subsp. enterica; test: Antimicrobial activity against multidrug-resistant Salmonella enterica Serovar Typhi isolate DT37 harboring DNA gyrase A S83F mutation by disk diffusion method
[25] = tested on: Salmonella enterica subsp. enterica; test: Antimicrobial activity against multidrug-resistant Salmonella enterica Serovar Typhi isolate AG16 harboring DNA gyrase A S83F mutation by disk diffusion method
[26] = tested on: Salmonella enterica subsp. enterica; test: Antimicrobial activity against multidrug-resistant Salmonella enterica Serovar Typhi isolate ipt 33 harboring DNA gyrase A S83F mutation by disk diffusion method
[27] = tested on: Salmonella enterica subsp. enterica; test: Antimicrobial activity against Salmonella enterica Serovar Typhi isolate D43 harboring DNA gyrase A S83Y mutation by disk diffusion method in presence of plasmid mediated quinolone-resistant gene qnrA and qnrS
[28] = tested on: Salmonella enterica subsp. enterica; test: Antimicrobial activity against multidrug-resistant Salmonella enterica Serovar Typhi isolate DT47 harboring DNA gyrase A S83F mutation by disk diffusion method in presence of plasmid mediated quinolone-resistant gene qnrA and qnrS
[29] = tested on: Salmonella enterica subsp. enterica; test: Antimicrobial activity against multidrug-resistant Salmonella enterica Serovar Typhi isolate nar 51 harboring DNA gyrase A S83F mutation by disk diffusion method
[30] = tested on: Salmonella enterica subsp. enterica; test: Antimicrobial activity against multidrug-resistant Salmonella enterica Serovar Typhi isolate nar 107 harboring DNA gyrase A S83F mutation by disk diffusion method in presence of plasmid mediated quinolone-resistant gene qnrA and qnrS
[31] = tested on: Salmonella enterica subsp. enterica; test: Antimicrobial activity against multidrug-resistant Salmonella enterica Serovar Typhi isolate DT60 harboring DNA gyrase A S83F mutation by disk diffusion method
[32] = tested on: Salmonella enterica subsp. enterica; test: Antimicrobial activity against multidrug-resistant Salmonella enterica Serovar Typhi isolate AG168 harboring DNA gyrase A S83F mutation by disk diffusion method
[33] = tested on: Salmonella enterica subsp. enterica; test: Antimicrobial activity against multidrug-resistant Salmonella enterica Serovar Typhi isolate nar 104 harboring DNA gyrase A S83F mutation by disk diffusion method in presence of plasmid mediated quinolone-resistant gene qnrA and qnrS
[34] = tested on: Salmonella enterica subsp. enterica; test: Antimicrobial activity against multidrug-resistant Salmonella enterica Serovar Typhi isolate AG152 harboring DNA gyrase A S83F and D87G mutation by disk diffusion method in presence of plasmid mediated quinolone-resistant gene qnrA and qnrS
[35] = tested on: Salmonella enterica subsp. enterica; test: Antimicrobial activity against multidrug-resistant Salmonella enterica Serovar Typhi isolate nar 102 harboring DNA gyrase A S83F mutation by disk diffusion method in presence of plasmid mediated quinolone-resistant gene qnrA and qnrS
[36] = tested on: Salmonella enterica subsp. enterica; test: Antimicrobial activity against multidrug-resistant Salmonella enterica Serovar Typhi isolate AG5 harboring DNA gyrase A S83F mutation by disk diffusion method
[37] = tested on: Salmonella enterica subsp. enterica; test: Antimicrobial activity against Salmonella enterica Serovar Typhi isolate AG169 harboring DNA gyrase A S83F mutation by disk diffusion method
[38] = tested on: Salmonella enterica subsp. enterica; test: Antimicrobial activity against multidrug-resistant Salmonella enterica Serovar Typhi isolate CT61 harboring DNA gyrase A S83F mutation by disk diffusion method in presence of plasmid mediated quinolone-resistant gene qnrA and qnrS
[39] = tested on: Salmonella enterica subsp. enterica; test: Antimicrobial activity against multidrug-resistant Salmonella enterica Serovar Typhi isolate AG7 harboring DNA gyrase A S83F mutation by disk diffusion method

O=C(O)c1cn(C2CC2)c2cc(N3CCNCC3)c(F)cc2c1=O [CIPROFLOXACIN]
MIC [1]: 0.5 µg/mL | MIC [2]: 0.25 µg/mL | MIC [3]: 0.5 µg/mL (≈ 1.51 µM) | MIC [4]: 0.5 µg/mL (≈ 1.51 µM) | MIC [5]: 0.38 µg/mL | MIC [6]: 0.5 µg/mL (≈ 1.51 µM) | MIC [7]: 0.38 µg/mL | MIC [8]: 0.5 µg/mL (≈ 1.51 µM) | MIC [9]: 0.5 µg/mL (≈ 1.51 µM) | MIC [10]: 0.25 µg/mL | MIC [11]: 0.5 µg/mL (≈ 1.51 µM) | MIC [12]: 0.38 µg/mL | MIC [13]: 0.5 µg/mL | MIC [14]: 0.25 µg/mL | MIC [15]: 0.25 µg/mL | MIC [16]: 0.5 µg/mL (≈ 1.51 µM) | MIC [17]: 0.25 µg/mL (≈ 0.754 µM) | MIC [18]: 0.25 µg/mL | MIC [19]: 0.25 µg/mL | MIC [20]: 0.06 µg/mL (≈ 0.181 µM) | MIC [21]: 0.5 µg/mL (≈ 1.51 µM) | MIC [22]: 0.5 µg/mL (≈ 1.51 µM) | MIC [23]: 0.25 µg/mL | MIC [24]: 0.5 µg/mL (≈ 1.51 µM) | MIC [25]: 0.38 µg/mL (≈ 1.15 µM) | MIC [26]: 0.5 µg/mL (≈ 1.51 µM) | MIC [27]: 0.25 µg/mL | MIC [28]: 0.5 µg/mL | MIC [29]: 0.5 µg/mL (≈ 1.51 µM) | MIC [30]: 0.25 µg/mL | MIC [31]: 0.25 µg/mL (≈ 0.754 µM) | MIC [32]: 0.38 µg/mL (≈ 1.15 µM) | MIC [33]: 0.25 µg/mL | MIC [34]: 0.38 µg/mL | MIC [35]: 0.125 µg/mL | MIC [36]: 0.5 µg/mL (≈ 1.51 µM) | MIC [37]: 0.38 µg/mL (≈ 1.15 µM) | MIC [38]: 0.125 µg/mL | MIC [39]: 0.5 µg/mL (≈ 1.51 µM)

COc1c(N2CCNC(C)C2)c(F)cc2c(=O)c(C(=O)O)cn(C3CC3)c12 (stereo not drawn) [GATIFLOXACIN]
MIC [1]: 0.125 µg/mL | MIC [2]: 0.19 µg/mL | MIC [3]: 0.125 µg/mL (≈ 0.333 µM) | MIC [4]: 0.25 µg/mL (≈ 0.666 µM) | MIC [5]: 0.13 µg/mL | MIC [6]: 0.094 µg/mL (≈ 0.25 µM) | MIC [7]: 0.125 µg/mL | MIC [8]: 0.13 µg/mL (≈ 0.346 µM) | MIC [9]: 0.19 µg/mL (≈ 0.506 µM) | MIC [10]: 0.19 µg/mL | MIC [11]: 0.125 µg/mL (≈ 0.333 µM) | MIC [12]: 0.094 µg/mL | MIC [13]: 0.19 µg/mL | MIC [14]: 0.19 µg/mL | MIC [15]: 0.19 µg/mL | MIC [16]: 0.19 µg/mL (≈ 0.506 µM) | MIC [17]: 0.09 µg/mL (≈ 0.24 µM) | MIC [18]: 0.125 µg/mL | MIC [19]: 0.125 µg/mL | MIC [20]: 0.032 µg/mL (≈ 0.0852 µM) | MIC [21]: 0.125 µg/mL (≈ 0.333 µM) | MIC [22]: 0.125 µg/mL (≈ 0.333 µM) | MIC [23]: 0.19 µg/mL | MIC [24]: 0.125 µg/mL (≈ 0.333 µM) | MIC [25]: 0.13 µg/mL (≈ 0.346 µM) | MIC [26]: 0.125 µg/mL (≈ 0.333 µM) | MIC [27]: 0.19 µg/mL | MIC [28]: 0.125 µg/mL | MIC [29]: 0.125 µg/mL (≈ 0.333 µM) | MIC [30]: 0.125 µg/mL | MIC [31]: 0.125 µg/mL (≈ 0.333 µM) | MIC [32]: 0.13 µg/mL (≈ 0.346 µM) | MIC [33]: 0.125 µg/mL | MIC [34]: 0.25 µg/mL | MIC [35]: 0.094 µg/mL | MIC [36]: 0.25 µg/mL (≈ 0.666 µM) | MIC [37]: 0.13 µg/mL (≈ 0.346 µM) | MIC [38]: 0.064 µg/mL | MIC [39]: 0.19 µg/mL (≈ 0.506 µM)
